This experiment is described as follows: Inhibition of rabbit skeletal muscle myosin-2 ATPase incubated for 20 mins followed by ATP addition and measured after 20 mins.

We go through 1 molecule from BindingDB's records for doi:10.1016/j.bmc.2020.115928 (Tu Dresden, 2021).

A word on the IC50: it is the concentration at which inhibition is half-maximal. `Oc1c(Br)cc(Br)cc1-c1[nH]c(Br)c(Br)c1Br` [pentabromopseudilin] registered an IC50 of 5.1 µM.
